Results reported in patent US20210008118A1, “METHOD FOR ENHANCING MIGRATION OF STEM CELLS INTO CANCER CELLS” (GACHON UNIVERSITY OF INDUSTRY-ACADEMIC COOPERATION …, priority 2019, published 2021).

Test system: mesenchymal stem cells (BMMSCs, ADMSCs) migrating into cancer cells (A549, H1975, PANC-1, U87MG)
Assay: Transwell migration of stem cells treated with ion channel inhibitor DIDS or ion channel antibodies
Assay type: cell-based
Details: 500 μM DIDS or ion channel antibodies; all cancer cells used (A549, H1975, PANC-1, U87MG)
Protocol: In vitro mobility measurement of stem cells according to an embodiment of the present invention was performed using a transwell membrane bilayer plate having a pore size of 8 μm. Cancer cells for stimulating the stem cells were cultured in the layer under the membrane, and the stem cells were cultured in the upper chamber to allow the cells to penetrate downward. At this time, the mobility was measured through the number of stem cells infiltrated the membrane.
In order to investigate the effect of ion channel activity on the ability of stem cells to migrate into cancer cells, the present inventors performed an analysis similar to Example 1-1 using DIDS (4,4′-Diisothiocyano-2,2′-stilbenedisulfonic acid) which is an ion channel inhibitor and antibodies specifically binding to ion channels (SLC4A4, SLC4A7). Particularly, in the case of lung cancer cells, 5×10^4 of bone marrow-derived mesenchymal stem cells (BMMSCs) as a control group and lung cancer cells (A549 and H1975) as an experimental group were dispensed onto the lower well, respectively, and cultured at 37° C. for 24 hours. […] Subsequently, stem cells migrated into the lower well through the transwell membrane were counted trough a confocal fluorescence microscope in order to measure their mobility (FIGS. 3A to 4D).

O=S(=O)(O)c1cc(N=C=S)ccc1C=Cc1ccc(N=C=S)cc1S(=O)(=O)O [DIDS, 4,4′-Diisothiocyano-2,2′-stilbenedisulfonic acid]
ability of the mesenchymal stem cells to migrate into cancer cells: decreased significantly
